In ChEMBL document CHEMBL1152385, “Cyanoguanidine-based lactam derivatives as a novel class of orally bioavailable factor Xa inhibitors” (Bioorg Med Chem Lett, 2009):

molecular target: Coagulation factor X (Homo sapiens, UniProt P00742); assay: Inhibition of human factor 10a-mediated cleavage of synthetic substrate S-2222
Sequence (P00742 41-179 limits assumed): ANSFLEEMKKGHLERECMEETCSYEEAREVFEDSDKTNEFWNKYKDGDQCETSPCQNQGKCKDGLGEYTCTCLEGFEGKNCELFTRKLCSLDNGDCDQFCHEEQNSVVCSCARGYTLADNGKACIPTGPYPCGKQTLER
Sequence (P00742 235-488 limits assumed): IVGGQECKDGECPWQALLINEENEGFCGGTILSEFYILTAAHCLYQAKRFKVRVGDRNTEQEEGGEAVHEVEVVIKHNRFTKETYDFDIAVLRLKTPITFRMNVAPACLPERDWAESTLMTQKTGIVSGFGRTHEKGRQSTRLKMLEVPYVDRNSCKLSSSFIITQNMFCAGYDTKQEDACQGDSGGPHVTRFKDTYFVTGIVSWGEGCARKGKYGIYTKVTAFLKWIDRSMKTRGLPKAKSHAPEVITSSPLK

Going from Cc1cc2cc(N=C(NC#N)N[C@H]3CCCCN(CC(=O)N4CCCC4)C3=O)ccc2s1 to Cc1cc2cc(N=C(NC#N)N[C@H]3CCCCN(CC(=O)N4CCCC4)C3=O)ccc2[nH]1, the IC50 rises from 2880 nM to > 34000 nM. The first is the more potent here.

Compared with Cc1coc2ccc(N=C(NC#N)N[C@H]3CCCCN(CC(=O)N4CCCC4)C3=O)cc12, Cc1oc2ccc(N=C(NC#N)N[C@H]3CCCCN(CC(=O)N4CCCC4)C3=O)cc2c1C is 8.4-fold lower in IC50: 2940 nM for the first, 349 nM for the second. The second is the more potent here.

Compared with Cc1cc2cc(N=C(NC#N)NC3CCCCCN(CC(=O)N4CCCC4)C3=O)ccc2o1 (racemic), Cc1cc2cc(N=C(NC#N)N[C@@H]3CCN(CC(=O)N4CCCC4)C3=O)ccc2o1 is 150-fold higher in IC50: 195 nM for the first, 30000 nM for the second.

Compared with N#C/N=C(\Nc1ccc2oc(C#N)cc2c1)N[C@H]1CCCCN(CC(=O)N2CCCC2)C1=O, Cc1cc2cc(N/C(=N\C#N)N[C@H]3CCCN(CC(=O)N4CCCC4)C3=O)ccc2o1 is 2.8-fold lower in IC50: 2600 nM for the first, 928 nM for the second. The second is the more potent here.

Compared with Cc1cc2cc(N/C(=N\C#N)N[C@H]3CCCCN(CC(=O)N4CCCC4)C3=O)cc(C(F)(F)F)c2o1, Cc1cc2cc(N/C(=N\C#N)N[C@H]3CCCCN(CC(=O)N4CCCC4)C3=O)cc(F)c2o1 is 15-fold lower in IC50: 167 nM for the first, 11 nM for the second. The second is the more potent here.

Going from Cc1cc2cc(N=C(NC#N)N[C@H]3CCCCN(CC(=O)N4CCCC4)C3=O)cc(C)c2o1 to COc1cc(N=C(NC#N)N[C@H]2CCCCN(CC(=O)N3CCCC3)C2=O)cc2cc(C)oc12, the IC50 rises from 21 nM to 14800 nM (700-fold).

Cc1nc2ccc(N=C(NC#N)N[C@H]3CCCCN(CC(=O)N4CCCC4)C3=O)cc2[nH]1 and CCc1cc2cc(N=C(NC#N)N[C@H]3CCCCN(CC(=O)N4CCCC4)C3=O)ccc2o1 are within 1.5-fold of each other in IC50: 11900 nM for the first, 15500 nM for the second.

Compared with CC(=O)NC[C@@H]1CCCN1C(=O)CN1CCCC[C@H](N/C(=N\C#N)Nc2ccc3oc(C)cc3c2)C1=O, CC(=O)NC[C@H]1CCCN1C(=O)CN1CCCC[C@H](N/C(=N\C#N)Nc2ccc3oc(C)cc3c2)C1=O is 1.9-fold lower in IC50: 54 nM for the first, 28 nM for the second.

First: Cc1nc2cc(N/C(=N\C#N)N[C@H]3CCCCN(CC(=O)N4CCCC4)C3=O)ccc2o1
Second: Cc1nc2ccc(N/C(=N\C#N)N[C@H]3CCCCN(CC(=O)N4CCCC4)C3=O)cc2o1
The IC50 of the first is 7-fold lower: 2680 nM for the first, 18800 nM for the second. The first is the more potent here.

First: Cc1cc2cc(N=C(NC#N)N[C@H]3CCCCN(CC(=O)N4CCCC4)C3=O)c(F)cc2o1
Second: Cc1cc2c(F)c(N/C(=N\C#N)N[C@H]3CCCCN(CC(=O)N4CCCC4)C3=O)ccc2o1
The IC50 of the first is 36-fold lower: 76 nM for the first, 2730 nM for the second. The first is the more potent here.

Compared with Cc1cc2cc(N/C(=N\C#N)N[C@H]3CCCCN(CC(=O)N4CCCC4)C3=O)cc(Cl)c2o1, Cc1cc2ccc(N/C(=N\C#N)N[C@H]3CCCCN(CC(=O)N4CCCC4)C3=O)cc2o1 is higher in IC50: 27 nM for the first, > 34000 nM for the second.

First: Cc1cc2cc(N/C(=N\C#N)N[C@H]3CCCCN(CC(=O)N4CCC[C@@H]4CN)C3=O)ccc2o1
Second: Cc1cc2cc(N/C(=N\C#N)N[C@H]3CCCCN(CC(=O)N4CCC[C@H]4CN)C3=O)ccc2o1
The IC50 of the first is 18-fold lower: 22 nM for the first, 386 nM for the second. The first is the more potent here.

Compared with Cc1cc2ccc(N/C(=N\C#N)N[C@H]3CCCCN(CC(=O)N4CCCC4)C3=O)cc2[nH]1, Cn1cc2cc(N/C(=N\C#N)N[C@H]3CCCCN(CC(=O)N4CCCC4)C3=O)ccc2n1 is 1.8-fold higher in IC50: 1300 nM for the first, 2400 nM for the second. The first is the more potent here.

First: Cc1cc2cc(N/C(=N\C#N)N[C@H]3CCN(CC(=O)N4CCCC4)C3=O)ccc2o1
Second: Cc1cc2cc(N/C(=N\C#N)N[C@H]3CCCCN(CC(=O)N4CC5CC5C4)C3=O)ccc2o1 (some centres undefined)
The IC50 of the first is higher: > 32000 nM for the first, 15 nM for the second.

Going from N#C/N=C(\Nc1ccc2occc2c1)N[C@H]1CCCCN(CC(=O)N2CCCC2)C1=O to N#C/N=C(\Nc1ccc2ccccc2c1)N[C@H]1CCCCN(CC(=O)N2CCCC2)C1=O, the IC50 rises from 84 nM to 780 nM (9.3-fold). The first is the more potent here.

Compared with Cc1cc2cc(N/C(=N\C#N)N[C@H]3CCCCN(CC(=O)N4C5CCC4CNC5)C3=O)ccc2o1, Cc1cc2cc(N/C(=N\C#N)N[C@H]3CCCCN(CC(=O)N4CCC(Cc5ccccc5)C4)C3=O)ccc2o1 (some centres undefined) is 11-fold higher in IC50: 5 nM for the first, 53 nM for the second. The first is the more potent here.

In the case of Cc1cn2cc(N/C(=N\C#N)N[C@H]3CCCCN(CC(=O)N4CCCC4)C3=O)ccc2n1, the IC50 is reported as > 34000 nM.

system: Plasma

In the case of CC(=O)NC[C@@H]1CCCN1C(=O)CN1CCCC[C@H](N/C(=N\C#N)Nc2ccc3oc(C)cc3c2)C1=O, the EC is reported as >50 µM.
For Cc1cc2cc(N/C(=N\C#N)N[C@H]3CCCCN(CC(=O)N4CCC(Cc5ccccc5)C4)C3=O)ccc2o1 (some centres undefined), the EC was >50 µM.

In order of rising EC:
1. Cc1cc2cc(N/C(=N\C#N)N[C@H]3CCCCN(CC(=O)N4C5CCC4CNC5)C3=O)ccc2o1  11.5 µM
2. Cc1cc2cc(N/C(=N\C#N)N[C@H]3CCCCN(CC(=O)N4CCC[C@@H]4CN)C3=O)ccc2o1  27 µM
3. CC(=O)NC[C@H]1CCCN1C(=O)CN1CCCC[C@H](N/C(=N\C#N)Nc2ccc3oc(C)cc3c2)C1=O  33 µM
4. Cc1cc2cc(N/C(=N\C#N)N[C@H]3CCCCN(CC(=O)N4CC5CC5C4)C3=O)ccc2o1 (some centres undefined)  56 µM
